According to ChEMBL document CHEMBL1149456, “Substituted 4-hydroxyphenyl sulfonamides as pathway-selective estrogen receptor ligands” (Bioorg Med Chem Lett, 2006):

Experiments:
[1] = target: T1, Estrogen receptor (Homo sapiens, UniProt P03372); experiment: Inhibition of binding to ER in Ad5-wt-ER-infected HAECT1 cells by NF-kappaB-mediated luciferase reporter; format: functional, cell-based
T1 sequence (P03372 whole entry): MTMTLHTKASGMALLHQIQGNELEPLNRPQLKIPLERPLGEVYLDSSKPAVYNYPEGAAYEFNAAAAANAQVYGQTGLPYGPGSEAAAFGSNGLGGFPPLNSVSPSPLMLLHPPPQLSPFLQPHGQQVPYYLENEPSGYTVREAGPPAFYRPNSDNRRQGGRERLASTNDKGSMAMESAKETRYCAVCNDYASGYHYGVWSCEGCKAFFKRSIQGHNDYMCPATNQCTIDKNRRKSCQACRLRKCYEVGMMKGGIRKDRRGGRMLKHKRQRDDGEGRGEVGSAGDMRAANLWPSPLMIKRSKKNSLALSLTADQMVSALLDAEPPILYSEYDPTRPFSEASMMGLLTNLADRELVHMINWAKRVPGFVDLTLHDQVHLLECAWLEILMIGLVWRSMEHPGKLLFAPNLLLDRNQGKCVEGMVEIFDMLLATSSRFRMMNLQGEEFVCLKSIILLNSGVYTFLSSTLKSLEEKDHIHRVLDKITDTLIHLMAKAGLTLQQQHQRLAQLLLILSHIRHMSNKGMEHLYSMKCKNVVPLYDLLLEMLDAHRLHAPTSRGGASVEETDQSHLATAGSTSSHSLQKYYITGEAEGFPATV

[2] = target: T1, Estrogen receptor; experiment: Effect on binding to ER in Ad5-wt-ER-infected HAECT1 cells by creatine kinase expression; format: functional, cell-based

Row | IC50 ([1]; haect1) | EC50 ([2]; read-out: EC50) [nM] | IC50 ([1]; read-out: IC50) [nM] | Compound | EC50 ([2]; haect1)
1 | Not Active | – | – | CCN(c1ccccc1)S(=O)(=O)c1ccc(O)c(OC)c1 | –
2 | – | 75 | 14 | CCCN(c1c(C)cccc1C)S(=O)(=O)c1ccc(O)c(C)c1 | –
3 | Not Active | – | – | O=S(=O)(Nc1ccccc1)c1ccc(O)cc1 | –
4 | Not Active | – | – | CCN(c1ccc(OC)cc1)S(=O)(=O)c1ccc(O)cc1 | –
5 | – | 480 | 40 | CCCN(c1ccccc1Br)S(=O)(=O)c1ccc(O)c(C)c1 | –
6 | – | 378 | 90 | CCN(c1ccccc1Br)S(=O)(=O)c1ccc(O)cc1 | –
7 | – | 830 | 1970 | CCN(c1cccc(OC)c1)S(=O)(=O)c1ccc(O)cc1 | –
8 | – | 153 | 26 | CCCN(c1c(C)cccc1Cl)S(=O)(=O)c1ccc(O)c(C)c1 | –
9 | – | 378 | 16 | CCCN(c1c(Cl)cccc1Cl)S(=O)(=O)c1ccc(O)c(C)c1 | –
10 | – | 151 | 26 | CCCN(c1ccccc1Br)S(=O)(=O)c1ccc(O)cc1 | –
11 | – | 2140 | 328 | CCN(c1ccccc1)S(=O)(=O)c1ccc(O)c(C)c1 | –
12 | – | 1390 | 272 | CCN(c1ccc(O)cc1)S(=O)(=O)c1ccc(O)cc1 | –
13 | – | > 2500 | 1370 | CC(C)(C)CN(c1ccccc1)S(=O)(=O)c1ccc(O)cc1 | –
14 | – | 161 | 74 | CCCN(c1ccccc1F)S(=O)(=O)c1ccc(O)cc1 | –
15 | Not Active | – | – | O=S(=O)(c1ccc(O)cc1)N1CCCc2ccccc21 | –
16 | – | 705 | 317 | CCCCN(c1ccccc1)S(=O)(=O)c1ccc(O)cc1 | –
17 | – | 650 | 51 | CCCN(c1ccccc1Cl)S(=O)(=O)c1ccc(O)c(C)c1 | –
18 | – | 1990 | 871 | CC(C)N(c1ccccc1)S(=O)(=O)c1ccc(O)cc1 | –
19 | – | 1430 | 303 | CCCN(c1ccccc1)S(=O)(=O)c1ccc(O)cc1 | –
20 | – | 144 | 42 | CCCN(c1ccccc1Cl)S(=O)(=O)c1ccc(O)cc1 | –
21 | – | 12 | 7 | CCCN(c1c(C)cccc1CC)S(=O)(=O)c1ccc(O)c(C)c1 | –
22 | – | – | 60 | CCCN(c1ccccc1Br)S(=O)(=O)c1ccc(O)c(C(F)(F)F)c1 | Not Active
23 | Not Active | – | – | O=S(=O)(c1ccc(O)cc1)N(CCO)c1ccccc1 | –
24 | – | 1600 | 404 | CCN(c1ccccc1)S(=O)(=O)c1ccc(O)cc1 | –
25 | – | 923 | 109 | CCCN(c1ccccc1C)S(=O)(=O)c1ccc(O)c(C)c1 | –
26 | – | 243 | 54 | CCCN(c1ccccc1C(F)(F)F)S(=O)(=O)c1ccc(O)cc1 | –
27 | Not Active | – | – | CN(c1ccccc1)S(=O)(=O)c1ccc(O)cc1 | –
28 | – | 63 | 24 | CCCN(c1c(C)cccc1Cl)S(=O)(=O)c1ccc(O)cc1 | –
29 | – | 2170 | 830 | CCN(c1ccccc1OC)S(=O)(=O)c1ccc(O)cc1 | –
30 | – | 599 | 235 | C=CCN(c1ccccc1)S(=O)(=O)c1ccc(O)cc1 | –

Row | Compound | IC50 ([1]; haect1) | EC50 ([2]; read-out: EC50) [nM] | IC50 ([1]; read-out: IC50) [nM] | EC50 ([2]; haect1)
31 | CCCN(c1c(CC)cccc1CC)S(=O)(=O)c1ccc(O)c(C)c1 | – | 213 | 5 | –
32 | O=S(=O)(c1ccc(O)cc1)N(c1ccccc1)c1ccccc1 | – | 1540 | 410 | –
33 | O=S(=O)(c1ccc(O)cc1)N(Cc1ccccc1)c1ccccc1 | – | 242 | 500 | –
34 | CC1CCc2ccccc2N1S(=O)(=O)c1ccc(O)cc1 (stereo not drawn) | – | > 1000 | 479 | –
35 | CCCN(c1ccccc1-c1ccccc1)S(=O)(=O)c1ccc(O)c(C)c1 | – | > 2890 | 253 | –
36 | O=S1(=O)c2ccc(O)cc2CCN1c1ccccc1Cl | – | – | 892 | Not Active
37 | O=S(=O)(c1ccc(O)cc1)N(c1ccccc1)C1CCCCC1 | – | 534 | 866 | –
